The text below walks through data of US11850247B2, “Antiviral compounds” (REGENTS OF THE UNIVERSITY OF MINNESOTA, priority 2020, dated 2023).

In one series the test system is HIV-1. The series can be described thus: Anti-HIV-1 activity in TZM-GFP cells (viral LTR-activated GFP expression). Type of series: cell-based. The following applies: for inhibition at 2 µM: Human immunodeficiency virus 1, 2 μM compound; for inhibition at 2 µM / inhibition at 20 µM: HIV-1 MOI=1; for inhibition at 20 µM: Human immunodeficiency virus 1, 20 μM compound; for EC50: Human immunodeficiency virus 1, HIV-1 strain MOI=1, GFP positive cells counted after 48 hours. As to the method: The potency of HIV-1 inhibition by a compound was based on its inhibitory effect on viral LTR-activated GFP expression compared with that of compound-free (DMSO) controls. Briefly, TZM-GFP cells were plated at density of 1×10^4 cells per well in a 96-well plate. 24 hours later, media was replaced with increasing concentrations of compound. 24 hours post treatment, cells were exposed to an HIV-1 strain (MOI=1).
(§1) The cytotoxicity of each compound was also determined in TZM-GFP cells. Cells were plated at a density of 1×10^4 cells per well in a 96-well plate and were continuously exposed to increasing concentrations of a compound for 72 hours. The number of viable cells in each well was determined using a Cell Proliferation Kit II (XTT), and 50% cytotoxicity concentration (CC50) values were determined. All the cell-based assays were conducted in duplicate and in at least two independent experiments. For the EC50 and CC50 dose responses, values were plotted in GraphPad Prism 5 and analyzed with the log (inhibitor) vs. normalized response-variable slope equation. Final values were calculated in each independent assay and the average values were determined. Statistical analysis (calculation of standard deviation) was performed by using Microsoft Excel.

Series [1] is described as follows: Cytotoxicity in TZM-GFP cells (XTT). Type of series: cell-based. To be noted: human, 72 hours exposure, XTT. As to the method:
as §1

The target in series [2] is covalently-crosslinked hexameric CA A14C/E45C/W184A/M185A (CA121) (Human immunodeficiency virus type 1 group M subtype B, UniProt P12493, A146C/E177C/M317A/W316A). The series can be described thus: Thermal shift assay (TSA), CA hexamer stability. Type of series: binding, HIV-1. The following applies: compound 20 μM, ΔTm=Tm−T0 vs DMSO.

Structures are written as SMILES. A value given as a limit tells only on which side of the number the result lay.

For `CCN(C(=O)[C@H](Cc1ccccc1)NC(=O)Cc1ccc2ccccc2c1)c1ccccc1` [Example 15, (S)—N-ethyl-2-(2-(naphthalen-2-yl)acetamido)-N,3-diphenylpropanamide], in the series with HIV-1, the inhibition – broadly, the change of the read-out against control, counted positive when it falls – at 2 µM was 46% and 20 µM produced 97% inhibition. Moreover, the CC50 (commonly the concentration that lowers cell viability or growth by half) at 72 h in series [1] is under 50 µM. In series [2], the “TSA ΔTm (° C.)” value amounted to 4.3 °C.
As for `CN(C(=O)[C@H](Cc1ccccc1)NC(=O)Cc1cccc2ccccc12)c1ccccc1` [Example 16, (S)—N-methyl-2-(2-(naphthalen-1-yl)acetamido)-N,3-diphenylpropanamide], it took 1.1 ± 0.04 µM to reach a half-maximal effect in the series with HIV-1 (EC50). In series [1], this compound had a CC50 at 72 h of under 50 µM. In addition, the “TSA ΔTm (° C.)” value in series [2] came to 6.0 °C.
As to `Cc1ccc(N(C)C(=O)[C@H](Cc2ccccc2)NC(=O)Cc2cccc3ccccc23)cc1` [Example 17, (S)—N-methyl-2-(2-(naphthalen-1-yl)acetamido)-3-phenyl-N-(p-tolyl)propanamide], in the series with HIV-1, the EC50 (commonly the concentration giving half of the maximal effect) amounted to 1 ± 0.2 µM. In series [1], the CC50 at 72 h was under 50 µM. In addition, the “TSA ΔTm (° C.)” value in series [2] came to 5.7 °C.
Consider `CN(C(=O)[C@H](Cc1ccccc1)NC(=O)Cc1cccc2ccccc12)c1ccc(Cl)cc1` [Example 18, (S)—N-(4-chlorophenyl)-N-methyl-2-(2-(naphthalen-1-yl)acetamido)-3-phenylpropanamide], for which the EC50 in the series on HIV-1 worked out at 0.83 ± 0.03 µM. The CC50 at 72 h in series [1] is under 50 µM. For the same compound, the “TSA ΔTm (° C.)” value in series [2] was determined as 7.2 °C.
Regarding `CN(C(=O)[C@H](Cc1ccccc1)NC(=O)Cc1cccc2ccccc12)c1cccc(Cl)c1` [Example 19, (S)—N-(3-chlorophenyl)-N-methyl-2-(2-(naphthalen-1-yl)acetamido)-3-phenylpropanamide], in the series on HIV-1, the inhibition at 2 µM came out at 53% and the inhibition at 20 µM was 96%. Moreover, the CC50 at 72 h in series [1] is under 50 µM. In addition, the “TSA ΔTm (° C.)” value in series [2] was 4.4 °C.
With `CN(C(=O)[C@H](Cc1ccccc1)NC(=O)Cc1cccc2ccccc12)c1cccc(F)c1` [Example 20, (S)—N-(3-fluorophenyl)-N-methyl-2-(2-(naphthalen-1-yl)acetamido)-3-phenylpropanamide], in the series on HIV-1, testing at 2 µM gave an inhibition of 44% and the inhibition at 20 µM was 97%. Also, in series [1], the CC50 at 72 h was under 50 µM. In series [2], the “TSA ΔTm (° C.)” value was 5.4 °C.
`CCN(C(=O)[C@H](Cc1ccccc1)NC(=O)Cc1cccc2ccccc12)c1ccccc1` [Example 21, (S)—N-ethyl-2-(2-(naphthalen-1-yl)acetamido)-N,3-diphenylpropanamide]: the EC50 in the series on HIV-1 came out at 1.8 ± 0.09 µM. The compound further yielded a CC50 at 72 h in series [1] of under 50 µM. For the same compound, the “TSA ΔTm (° C.)” value in series [2] was found to be 4.9 °C.
The corresponding values for `CN(C(=O)[C@H](Cc1ccccc1)NC(=O)CN1C(=O)NC2(CCCCC2)C1=O)c1ccccc1` [Example 22, 2-(2-(2,4-dioxo-1,3-diazaspiro[4.5]decan-3-yl)acetamido)-N-methyl-N,3-diphenylpropanamide] are 8.9 ± 1.5 µM, over 100 µM and 1.3 °C.
Turning to `COc1ccc(N(C)C(=O)[C@H](Cc2ccccc2)NC(=O)CN2C(=O)NC3(CCCCC3)C2=O)cc1` [Example 23, 2-(2-(2,4-dioxo-1,3-diazaspiro[4.5]decan-3-yl)acetamido)-N-(4-methoxyphenyl)-N-methyl-3-phenylpropanamide], the EC50 with HIV-1 turned out to be 5.1 ± 2 µM. The compound also came in with a CC50 at 72 h in series [1] of over 100 µM. Also, in series [2], the “TSA ΔTm (° C.)” value worked out at 1.8 °C.
`Cc1ccc(N(C)C(=O)[C@H](Cc2ccccc2)NC(=O)CN2C(=O)NC3(CCCCC3)C2=O)cc1` [Example 24, 2-(2-(2,4-dioxo-1,3-diazaspiro[4.5]decan-3-yl)acetamido)-N-methyl-3-phenyl-N-(p-tolyl)propenamide]: in the series on HIV-1, the EC50 turned out to be 1.9 ± 0.5 µM. The CC50 at 72 h in series [1] was over 100 µM. In addition, in series [2], the “TSA ΔTm (° C.)” value stood at 2.7 °C.
In the series on HIV-1, `CN(C(=O)[C@H](Cc1ccccc1)NC(=O)CN1C(=O)NC2(CCCCC2)C1=O)c1ccc(F)cc1` [Example 25, 2-(2-(2,4-dioxo-1,3-diazaspiro[4.5]decan-3-yl)acetamido)-N-(4-fluorophenyl)-N-methyl-3-phenylpropanamide] had an inhibition at 2 µM of 9% and an inhibition at 20 µM of 99%. The CC50 at 72 h in series [1] was over 50 µM. Further, in series [2], the “TSA ΔTm (° C.)” value was 3.1 °C.
In the series on HIV-1, `CN(C(=O)[C@H](Cc1ccccc1)NC(=O)CN1C(=O)NC2(CCCCC2)C1=O)c1cccc(F)c1` [Example 26, 2-(2-(2,4-dioxo-1,3-diazaspiro[4.5]decan-3-yl)acetamido)-N-(3-fluorophenyl)-N-methyl-3-phenylpropanamide] showed an inhibition at 2 µM of 24% and an inhibition at 20 µM of 98%. This compound yielded a CC50 at 72 h in series [1] of over 50 µM. The “TSA ΔTm (° C.)” value in series [2] is 1.3 °C.
`CN(C(=O)[C@H](Cc1ccccc1)NC(=O)CN1C(=O)NC2(CCCCC2)C1=O)c1ccc(Cl)cc1` [Example 27, N-(4-chlorophenyl)-2-(2-(2,4-dioxo-1,3-diazaspiro[4.5]decan-3-yl)acetamido)-N-methyl-3-phenylpropanamide]: the EC50 in the series on HIV-1 stood at 2.5 ± 0.5 µM. In series [1], this compound returned a CC50 at 72 h of over 100 µM. For the same compound, in series [2], the “TSA ΔTm (° C.)” value was 2.2 °C.
`CN(C(=O)[C@H](Cc1ccccc1)NC(=O)CN1C(=O)NC2(CCCCC2)C1=O)c1cccc(Cl)c1` [Example 28, N-(3-chlorophenyl)-2-(2-(2,4-dioxo-1,3-diazaspiro[4.5]decan-3-yl)acetamido)-N-methyl-3-phenylpropanamide]: in the series on HIV-1, the inhibition at 2 µM was found to be 9% and the inhibition at 20 µM is 98%. In series [1], this compound yielded a CC50 at 72 h of under 50 µM. Besides, the “TSA ΔTm (° C.)” value in series [2] worked out at 3.3 °C.
`CN(C(=O)[C@H](Cc1ccccc1)NC(=O)CN1C(=O)NC2(CCCCC2)C1=O)c1cccc(Br)c1` [Example 29, N-(3-bromophenyl)-2-(2-(2,4-dioxo-1,3-diazaspiro[4.5]decan-3-yl)acetamido)-N-methyl-3-phenylpropanamide] came in with an EC50 in the series on HIV-1 of over 20 µM. This compound displayed a CC50 at 72 h in series [1] of over 50 µM. Further, the “TSA ΔTm (° C.)” value in series [2] was found to be 1.5 °C.
As to `CCN(C(=O)[C@H](Cc1ccccc1)NC(=O)CN1C(=O)NC2(CCCCC2)C1=O)c1ccccc1` [Example 30, 2-(2-(2,4-dioxo-1,3-diazaspiro[4.5]decan-3-yl)acetamido)-N-ethyl-N,3-diphenylpropanamide], a half-maximal effect with HIV-1 (EC50) was put at 7.6 ± 0.9 µM. In addition, the CC50 at 72 h in series [1] was over 100 µM. Besides, in series [2], the “TSA ΔTm (° C.)” value is 2.0 °C.
Regarding `CN(C(=O)[C@H](Cc1ccccc1)NC(=O)Cn1c(=O)[nH]c2ccccc2c1=O)c1ccccc1` [Example 31, (S)-2-(2-(2,4-dioxo-1,4-dihydroquinazolin-3(2H)-yl)acetamido)-N-methyl-N,3-diphenylpropanamide], the EC50 with HIV-1 was 6.9 ± 0.8 µM. In addition, in series [1], the CC50 at 72 h was over 100 µM. Further, the “TSA ΔTm (° C.)” value in series [2] worked out at 2.7 °C.
Compound `CN(C(=O)[C@H](Cc1ccccc1)NC(=O)Cn1c(=O)[nH]c2ccccc2c1=O)c1ccc(F)cc1` [Example 32, (S)-2-(2-(2,4-dioxo-1,4-dihydroquinazolin-3(2H)-yl)acetamido)-N-(4-fluorophenyl)-N-methyl-3-phenylpropanamide] showed an EC50 in the series on HIV-1 of 8 ± 1.3 µM. The same compound came in with a CC50 at 72 h in series [1] of over 100 µM. In series [2], the “TSA ΔTm (° C.)” value came to 2.4 °C.
In the series on HIV-1, `CN(C(=O)[C@H](Cc1ccccc1)NC(=O)CNC(=O)c1ccccc1)c1ccccc1` [Example 34, (S)—N-(2-((1-(methyl(phenyl)amino)-1-oxo-3-phenylpropan-2-yl)amino)-2-oxoethyl)benzamide] yielded an inhibition at 2 µM of 15% and an inhibition at 20 µM of 96%. Also, the CC50 at 72 h in series [1] was over 50 µM. The “TSA ΔTm (° C.)” value in series [2] stood at 1.3 °C.
In turn, `Cc1ccc(N(C)C(=O)[C@H](Cc2ccccc2)NC(=O)CNC(=O)c2ccccc2)cc1` [Example 35, (S)—N-(2-((1-(methyl(p-tolyl)amino)-1-oxo-3-phenylpropan-2-yl)amino)-2-oxoethyl)benzamide] yielded an EC50 in the series with HIV-1 of 1.6 ± 0.02 µM. The CC50 at 72 h in series [1] was over 50 µM. Further, the “TSA ΔTm (° C.)” value in series [2] is 5.0 °C.
`CN(C(=O)[C@H](Cc1ccccc1)NC(=O)CNC(=O)c1ccccc1)c1ccc(Cl)cc1` [Example 36, (S)—N-(2-((1-((4-chlorophenyl)(methyl)amino)-1-oxo-3-phenylpropan-2-yl)amino)-2-oxoethyl)benzamide]: it took 0.88 ± 0.02 µM to reach a half-maximal effect in the series with HIV-1 (EC50). Further, the CC50 at 72 h in series [1] was over 50 µM. For the same compound, the “TSA ΔTm (° C.)” value in series [2] was 4.1 °C.
`CN(C(=O)[C@H](Cc1ccccc1)NC(=O)CNC(=O)c1ccccc1)c1cccc(Cl)c1` [Example 37, (S)—N-(2-((1-((3-chlorophenyl)(methyl)amino)-1-oxo-3-phenylpropan-2-yl)amino)-2-oxoethyl)benzamide]: in the series on HIV-1, the inhibition at 2 µM was determined as 40% and the inhibition at 20 µM was 95%. The CC50 at 72 h in series [1] is over 50 µM. In addition, the “TSA ΔTm (° C.)” value in series [2] was found to be 2.0 °C.
